Paper PMC8284461, “Piperidine-4-Carboxamides Target DNA Gyrase in Mycobacterium abscessus” (Antimicrobial Agents and Chemotherapy, 2021)
Converted amounts (≈) assume the structure as drawn.

Legend:
[1] = system: M. abscessus subsp. abscessus ATCC 19977 MXF^r-3 (GyrA D96G); test: MIC, resistant mutant; format: cell-based, Mycobacterium abscessus; conditions: Mycobacteroides abscessus, ATCC19977
[2] = system: M. abscessus subsp. abscessus M421; set-up: method as in PMID 19171799; conditions: abscessus M421, erm(41) T28; cited from earlier work
[3] = system: M. abscessus subsp. massiliense M111; set-up: method as in PMID 19171799; conditions: massiliense M111, erm(41) deletion; cited from earlier work
[4] = system: M. abscessus subsp. massiliense CCUG 48898T; set-up: method as in PMID 19171799; conditions: erm(41) deletion; cited from earlier work
[5] = system: M. abscessus subsp. abscessus ATCC 19977 844-TMF^r-4 (GyrB M474I); test: MIC, resistant mutant; format: cell-based, Mycobacterium abscessus; conditions: Mycobacteroides abscessus, ATCC19977
[6] = system: M. abscessus subsp. abscessus ATCC 19977 MXF^r-2 (GyrA D96N); test: MIC, resistant mutant; format: cell-based, Mycobacterium abscessus; conditions: Mycobacteroides abscessus, ATCC19977
[7] = system: M. abscessus subsp. bolletii M506; set-up: method as in PMID 19171799; conditions: bolletii M506, erm(41) C28; cited from earlier work
[8] = system: M. abscessus subsp. bolletii M232; set-up: method as in PMID 19171799; conditions: bolletii M232, erm(41) T28; cited from earlier work
[9] = system: M. abscessus subsp. abscessus Bamboo 844^r-2 (GyrA D91N); test: MIC, resistant mutant; format: cell-based, Mycobacterium abscessus; conditions: Mycobacteroides abscessus
[10] = system: M. abscessus subsp. abscessus Bamboo; set-up: method as in PMID 19171799; conditions: erm(41) C28; cited from earlier work
[11] = system: M. abscessus subsp. abscessus Bamboo 844^r-3 (GyrB S473W); test: MIC, resistant mutant; format: cell-based, Mycobacterium abscessus; conditions: Mycobacteroides abscessus
[12] = molecular target: recombinant M. abscessus wild-type DNA gyrase (Mycobacteroides abscessus, UniProt B1ME45+B1ME58); test: biochemical; set-up: species or system Mycobacterium abscessus; conditions: wild-type DNA gyrase, up to 50 μM
[13] = system: M. abscessus subsp. abscessus ATCC 19977 MXF^r-1 (GyrA D96Y); test: MIC, resistant mutant; format: cell-based, Mycobacterium abscessus; conditions: Mycobacteroides abscessus, ATCC19977
[14] = system: M. abscessus subsp. massiliense CCUG 48898T; test: MIC, broth microdilution; format: cell-based, Mycobacterium abscessus; conditions: Mycobacteroides abscessus, 72 h, 90% growth inhibition, 3 days
Protocol: (§1) MIC was determined using the broth microdilution method in 96-well plates as described previously ([47]). Briefly, a 10-point 2-fold serial dilution of compounds was performed in 96-well plates (Costar 3370; Corning, USA) starting at twice the desired highest concentration. […] One hundred microliters of the bacterial suspension was seeded onto the 96-well plates containing 100 μl of the serially diluted compounds to give a final volume of 200 μl in each well with the final OD600 of 0.005. The plates were sealed with parafilm, placed onto wet paper towels in a lock-lock box and incubated for 3 days at 37°C with orbital shaking at 90 rpm. […] Absorbance values at day 3 were subtracted from the day 0 readout. Percent growth inhibition was calculated by dividing the absolute absorbance value of treated cells with untreated control and multiplying by 100. CLR was included in all MIC experiments as a positive control to monitor assay reproducibility. MIC was defined as 90% of growth inhibition relative to untreated controls.

[15] = system: M. abscessus subsp. massiliense M111; test: MIC, broth microdilution; format: cell-based, Mycobacterium abscessus; conditions: Mycobacteroides abscessus, 72 h, 90% growth inhibition, 3 days
Protocol: as §1

[16] = system: M. abscessus subsp. abscessus M404; test: MIC, broth microdilution; format: cell-based, Mycobacterium abscessus; conditions: Mycobacteroides abscessus, 72 h, 90% growth inhibition, 3 days
Protocol: as §1

[17] = system: M. abscessus subsp. abscessus M337; test: MIC, broth microdilution; format: cell-based, Mycobacterium abscessus; conditions: Mycobacteroides abscessus, 72 h, 90% growth inhibition, 3 days
Protocol: as §1

[18] = system: M. abscessus subsp. bolletii M506; test: MIC, broth microdilution; format: cell-based, Mycobacterium abscessus; conditions: Mycobacteroides abscessus, 72 h, 90% growth inhibition, 3 days
Protocol: as §1

[19] = system: M. abscessus subsp. bolletii CCUG 50184T; test: MIC, broth microdilution; format: cell-based, Mycobacterium abscessus; conditions: Mycobacteroides abscessus, 72 h, 90% growth inhibition, 3 days
Protocol: as §1

[20] = system: M. abscessus subsp. abscessus K21; test: MIC, broth microdilution; format: cell-based, Mycobacterium abscessus; conditions: Mycobacteroides abscessus, 72 h, 90% growth inhibition, 3 days
Protocol: as §1

[21] = system: M. abscessus subsp. abscessus M199; test: MIC, broth microdilution; format: cell-based, Mycobacterium abscessus; conditions: Mycobacteroides abscessus, 72 h, 90% growth inhibition, 3 days
Protocol: as §1

[22] = system: M. abscessus subsp. abscessus M421; test: MIC, broth microdilution; format: cell-based, Mycobacterium abscessus; conditions: Mycobacteroides abscessus, 72 h, 90% growth inhibition, 3 days
Protocol: as §1

[23] = system: M. abscessus subsp. abscessus ATCC 19977; test: MIC, broth microdilution; format: cell-based, Mycobacterium abscessus; conditions: abscessus ATCC 19977 wild type, 90% growth inhibition, 3 days
Protocol: as §1

[24] = system: M. abscessus subsp. abscessus Bamboo; test: MIC, broth microdilution; format: cell-based, Mycobacterium abscessus; conditions: Mycobacteroides abscessus, 72 h; abscessus Bamboo wild type; 90% growth inhibition, 3 days
Protocol: as §1

[25] = system: M. abscessus subsp. abscessus M9; test: MIC, broth microdilution; format: cell-based, Mycobacterium abscessus; conditions: Mycobacteroides abscessus, 72 h, 90% growth inhibition, 3 days
Protocol: as §1

[26] = system: M. abscessus subsp. bolletii M232; test: MIC, broth microdilution; format: cell-based, Mycobacterium abscessus; conditions: Mycobacteroides abscessus, 72 h, 90% growth inhibition, 3 days
Protocol: as §1

[27] = system: M. abscessus subsp. abscessus M404; set-up: method as in PMID 19171799; conditions: abscessus M404, erm(41) C28; cited from earlier work
[28] = system: M. abscessus subsp. abscessus K21; set-up: method as in PMID 19171799; conditions: abscessus K21, erm(41) C28; cited from earlier work
[29] = system: M. abscessus subsp. abscessus M9; set-up: method as in PMID 19171799; conditions: abscessus M9, erm(41) T28; cited from earlier work
[30] = system: M. abscessus subsp. abscessus M199; set-up: method as in PMID 19171799; conditions: abscessus M199, erm(41) T28; cited from earlier work
[31] = system: M. abscessus subsp. bolletii CCUG 50184T; set-up: method as in PMID 19171799; conditions: erm(41) T28; cited from earlier work
[32] = system: M. abscessus subsp. abscessus ATCC 19977; set-up: method as in PMID 19171799; conditions: abscessus ATCC 19977, erm(41) T28; inducible resistance by sequevar; cited from earlier work
[33] = system: M. abscessus subsp. abscessus M337; set-up: method as in PMID 19171799; conditions: abscessus M337, erm(41) T28; cited from earlier work

Sequence of recombinant M. abscessus wild-type DNA gyrase (B1ME58 entry or part of it): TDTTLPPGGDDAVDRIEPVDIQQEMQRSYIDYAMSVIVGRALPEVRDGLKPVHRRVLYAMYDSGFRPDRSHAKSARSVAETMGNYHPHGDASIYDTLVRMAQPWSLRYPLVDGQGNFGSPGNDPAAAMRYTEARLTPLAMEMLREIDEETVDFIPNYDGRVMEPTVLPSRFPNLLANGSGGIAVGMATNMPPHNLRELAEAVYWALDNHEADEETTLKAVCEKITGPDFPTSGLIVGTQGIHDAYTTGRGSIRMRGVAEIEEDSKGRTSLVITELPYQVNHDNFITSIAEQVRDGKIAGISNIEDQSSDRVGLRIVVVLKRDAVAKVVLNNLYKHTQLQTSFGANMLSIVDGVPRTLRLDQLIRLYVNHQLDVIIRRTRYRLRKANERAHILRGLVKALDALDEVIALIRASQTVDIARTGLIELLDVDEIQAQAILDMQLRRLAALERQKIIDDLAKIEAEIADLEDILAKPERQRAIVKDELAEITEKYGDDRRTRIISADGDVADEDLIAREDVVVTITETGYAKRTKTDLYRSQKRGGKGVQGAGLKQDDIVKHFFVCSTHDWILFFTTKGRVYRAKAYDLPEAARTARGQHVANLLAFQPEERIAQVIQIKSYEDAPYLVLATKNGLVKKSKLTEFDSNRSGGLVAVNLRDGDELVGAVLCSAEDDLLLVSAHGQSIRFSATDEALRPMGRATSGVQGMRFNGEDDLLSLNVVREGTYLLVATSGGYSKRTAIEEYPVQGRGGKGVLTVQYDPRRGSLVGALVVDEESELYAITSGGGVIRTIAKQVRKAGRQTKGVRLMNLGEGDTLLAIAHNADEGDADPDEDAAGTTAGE
Sequence of recombinant M. abscessus wild-type DNA gyrase (B1ME45 entry or part of it): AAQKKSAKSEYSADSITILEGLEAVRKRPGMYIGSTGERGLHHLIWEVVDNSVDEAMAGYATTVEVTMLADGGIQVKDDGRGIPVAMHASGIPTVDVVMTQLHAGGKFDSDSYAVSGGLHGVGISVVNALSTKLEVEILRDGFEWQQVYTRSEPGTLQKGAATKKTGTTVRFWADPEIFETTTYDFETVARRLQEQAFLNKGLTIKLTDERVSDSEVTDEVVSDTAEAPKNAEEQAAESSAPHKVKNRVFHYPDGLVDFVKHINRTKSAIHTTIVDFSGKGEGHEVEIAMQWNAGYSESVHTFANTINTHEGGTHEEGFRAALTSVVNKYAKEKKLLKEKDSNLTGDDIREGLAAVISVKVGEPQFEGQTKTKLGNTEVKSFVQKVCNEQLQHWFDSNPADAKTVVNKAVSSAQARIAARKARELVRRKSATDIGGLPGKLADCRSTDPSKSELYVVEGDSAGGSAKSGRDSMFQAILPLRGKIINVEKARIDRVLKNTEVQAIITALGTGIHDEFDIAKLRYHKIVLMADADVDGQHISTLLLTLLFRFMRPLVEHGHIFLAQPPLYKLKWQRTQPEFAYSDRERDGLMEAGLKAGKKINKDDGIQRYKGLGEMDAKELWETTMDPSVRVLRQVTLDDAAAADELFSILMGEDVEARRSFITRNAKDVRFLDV

Which MIC [1] does the source give for `CC[C@H]1OC(=O)[C@H](C)[C@@H](O[C@H]2C[C@@](C)(OC)[C@@H](O)[C@H](C)O2)[C@H](C)[C@@H](O[C@@H]2O[C@H](C)C[C@H](N(C)C)[C@H]2O)[C@](C)(OC)C[C@@H](C)C(=O)[C@H](C)[C@@H](O)[C@]1(C)O` [CLR, clarithromycin] here?
The MIC was 1 µM (≈ 0.748 µg/mL).

What about the CLR susceptibility [2] of the same compound?
Its CLR susceptibility is “Resistant”.

What about the CLR susceptibility [3] of the same compound?
The CLR susceptibility was “Sensitive”.

What about the CLR susceptibility [4] of the same compound?
The CLR susceptibility was “Sensitive”.

And the MIC [5]?
The MIC was 2 µM (≈ 1.5 µg/mL).

What about the MIC [6] of the same compound?
The MIC was 1 µM (≈ 0.748 µg/mL).

What about the CLR susceptibility [7] of the same compound?
The CLR susceptibility was “Sensitive”.

What about the CLR susceptibility [8] of the same compound?
The CLR susceptibility was “Resistant”.

And the MIC [9]?
Its MIC is 0.3 µM (≈ 0.224 µg/mL).

What about the CLR susceptibility [10] of the same compound?
The CLR susceptibility was “Sensitive”.

And the MIC [11]?
The MIC was 0.4 µM (≈ 0.299 µg/mL).

What about the “effect on supercoiling activity” value [12] of the same compound?
The value was “did not affect the activity of the enzyme”.

And the MIC [13]?
The MIC was 2 µM (≈ 1.5 µg/mL).

What about the MIC [14] of the same compound?
The MIC was 0.2 µM (≈ 0.15 µg/mL).

What about the MIC [15] of the same compound?
The MIC was 0.2 µM (≈ 0.15 µg/mL).

And the MIC [16]?
Its MIC is 0.8 µM (≈ 0.598 µg/mL).

What about the MIC [17] of the same compound?
The MIC was 3.2 µM (≈ 2.39 µg/mL).

And the MIC [18]?
Its MIC is 0.8 µM (≈ 0.598 µg/mL).

What about the MIC [19] of the same compound?
Its MIC is 1.2 µM (≈ 0.898 µg/mL).

And the MIC [20]?
Its MIC is 0.6 µM (≈ 0.449 µg/mL).

And the MIC [21]?
The MIC was 3.2 µM (≈ 2.39 µg/mL).

What about the MIC [22] of the same compound?
The MIC was 3.2 µM (≈ 2.39 µg/mL).

And the MIC ([23]; Mycobacteroides abscessus, ATCC19977, 72 h)?
The MIC was 2 µM (≈ 1.5 µg/mL).

And the MIC [23]?
The MIC was 2 µM (≈ 1.5 µg/mL).

What about the MIC [24] of the same compound?
Its MIC is 0.4 µM (≈ 0.299 µg/mL).

What about the MIC [25] of the same compound?
The MIC was 3.2 µM (≈ 2.39 µg/mL).

What about the MIC [26] of the same compound?
Its MIC is 3.2 µM (≈ 2.39 µg/mL).

What about the CLR susceptibility [27] of the same compound?
The CLR susceptibility was “Sensitive”.

And the CLR susceptibility [28]?
The CLR susceptibility was “Sensitive”.

What about the CLR susceptibility [29] of the same compound?
Its CLR susceptibility is “Resistant”.

And the CLR susceptibility [30]?
Its CLR susceptibility is “Resistant”.

And the CLR susceptibility [31]?
Its CLR susceptibility is “Resistant”.

What about the CLR susceptibility [32] of the same compound?
The CLR susceptibility was “Resistant”.

And the CLR susceptibility [33]?
The CLR susceptibility was “Resistant”.
